Here are results for five compounds from ChEMBL document CHEMBL1201862, “PubChem BioAssay data set” (2004).

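Values below derive from 48-hour exposures of cells grown in 96-well plates, with endpoints linearly interpolated between the two concentrations bracketing the appropriate inhibition level. Abbreviation: GI50, concentration required for 50% inhibition of growth.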 Activity calls are given as the source filed them. Cut-off read from the data, not from the text of the source: active = GI50 up to about 1.1 µM and inactive = higher.

Some test systems named below: HOP-62; MDA-N; PC-3; CAKI-1; K562; NCI-H522; A498; SF-539; SNB-75; ACHN; NCI-H226; HCC 2998; MOLT-4; OVCAR-4; DMS-114; COLO 205; MDA-MB-231; MDA-MB-435; SN12C; CCRF-CEM.
Test in all cases: NCI anticancer screen, dose series, 48 h

On to `O=C(O)CCC(O)=C1S(=O)(=O)OCCOS1(=O)=O`, for which the GI50 with HOP-62, in the experiment with MDA-N, in the experiment with PC-3, in the experiment with CAKI-1, in the experiment with K562 and in the experiment on NCI-H522 was > 100 µM (inactive) throughout. The GI50 with A498, with SF-539, with SNB-75, with ACHN, with NCI-H226 and in the experiment with HCC 2998 was > 100 µM (inactive) throughout. Moreover, the GI50 in the experiment with MOLT-4, with OVCAR-4, in the experiment with DMS-114, with COLO 205, in the experiment on MDA-MB-231 and in the experiment on MDA-MB-435 was > 100 µM (inactive) in each case. Also, the GI50 with SN12C was > 100 µM (inactive).
As for `O=C1C(CO)=C(CO)C(=O)c2c(O)ccc(O)c21`, the GI50 in the experiment on HOP-62 was 1.04 µM (active); with MDA-N it was 0.236 µM (active); with CCRF-CEM, 0.0575 µM (active); with PC-3 it was 1.97 µM (inactive); in the experiment on CAKI-1 it was 0.387 µM (active); in the experiment on K562, 0.0877 µM (active). Besides, the GI50 in the experiment on NCI-H522 is 0.0897 µM (active); with A498, 1.69 µM (inactive); with SF-539, 0.705 µM (active); in the experiment on SNB-75, 0.388 µM (active); in the experiment on ACHN, 0.337 µM (active); with NCI-H226, 2.15 µM (inactive). The GI50 is 2.06 µM (inactive) with HCC 2998; 0.0497 µM (active) with MOLT-4; 0.234 µM (active) in the experiment on OVCAR-4; 0.24 µM (active) in the experiment on DMS-114; 0.0408 µM (active) in the experiment with COLO 205; 1.35 µM (inactive) in the experiment on MDA-MB-231. The values for the GI50 in the experiment on MDA-MB-435 and in the experiment with SN12C were 0.472 µM (active) and 0.287 µM (active), respectively.
As to `COc1cc(C(=O)NC2CCc3cc(OC)c(OC)c(OC)c3-c3ccc(OC)c(=O)cc32)cc(OC)c1OC` (centres undefined), the GI50 in the experiment with HOP-62 was 0.471 µM (active); with MDA-N, 0.0202 µM (active); with CCRF-CEM, 0.0339 µM (active); with PC-3, 0.0807 µM (active); with CAKI-1, 1.15 µM (inactive); in the experiment with K562 it was 0.0403 µM (active). Besides, the GI50 is 0.0234 µM (active) in the experiment on NCI-H522; 0.274 µM (active) with A498; 0.0228 µM (active) in the experiment with SF-539; 0.13 µM (active) in the experiment with SNB-75; 2.65 µM (inactive) in the experiment with ACHN; 0.444 µM (active) in the experiment with NCI-H226. Besides, the GI50 in the experiment on HCC 2998 was 0.0776 µM (active); in the experiment with MOLT-4 it was 0.0451 µM (active); in the experiment with OVCAR-4, 15.8 µM (inactive); in the experiment with DMS-114 it was 0.0233 µM (active); in the experiment with COLO 205, 0.0585 µM (active); with MDA-MB-231, 0.0306 µM (active). In addition, the GI50 with MDA-MB-435 was 0.0292 µM (active); in the experiment with SN12C, 0.199 µM (active).
With `CC(=O)OC1=CC(n2cc(F)c(=O)[nH]c2=O)OC(C)C1=O` (centres undefined), the GI50 with HOP-62 is 23.7 µM (inactive); in the experiment on MDA-N, 15.2 µM (inactive); in the experiment on CCRF-CEM it was 75 µM (inactive); with PC-3, 53 µM (inactive); in the experiment with CAKI-1, > 52.2 µM (inactive); in the experiment on K562 it was 57 µM (inactive). In addition, the GI50 is > 95.5 µM (inactive) in the experiment with NCI-H522; 10.4 µM (inactive) with A498; 3.01 µM (inactive) with SF-539; 51.1 µM (inactive) with SNB-75; 18.4 µM (inactive) in the experiment with ACHN; > 97.3 µM (inactive) with NCI-H226. The GI50 is 5.26 µM (inactive) in the experiment on HCC 2998; 39.8 µM (inactive) in the experiment on MOLT-4; > 82.2 µM (inactive) in the experiment on OVCAR-4; 99.3 µM (inactive) in the experiment on DMS-114; 15.3 µM (inactive) in the experiment on COLO 205; > 88.7 µM (inactive) with MDA-MB-231. The values for the GI50 in the experiment with MDA-MB-435 and with SN12C were 11.4 µM (inactive) and 67.8 µM (inactive), respectively.
Take `COc1cc2[nH]c3c(c2cc1OC)CCN[C@@]31CC[C@@]2(CC3c4c(cc(OC)c(O)c42)CCN3C)C[C@@H]1OC` (some centres undefined): the GI50 was 62.8 µM (inactive) in the experiment with HOP-62; 18.7 µM (inactive) in the experiment on MDA-N; 27.2 µM (inactive) in the experiment with CCRF-CEM; 48.6 µM (inactive) with PC-3; 35.6 µM (inactive) in the experiment with CAKI-1; 20.7 µM (inactive) in the experiment on K562. The GI50 was 29.2 µM (inactive) with NCI-H522; 32 µM (inactive) in the experiment with A498; 14.9 µM (inactive) with SF-539; 18.3 µM (inactive) with SNB-75; 46 µM (inactive) in the experiment on ACHN; 46.5 µM (inactive) in the experiment with NCI-H226. Also, the GI50 is 31.9 µM (inactive) with HCC 2998; 23.4 µM (inactive) in the experiment on MOLT-4; 29 µM (inactive) with OVCAR-4; 20.2 µM (inactive) with DMS-114; 16.6 µM (inactive) in the experiment on COLO 205; 28.1 µM (inactive) with MDA-MB-231. Further, the GI50 in the experiment with MDA-MB-435 was 18.6 µM (inactive); with SN12C, 71.9 µM (inactive).
